One molecule from PMC10648541, “Design, Synthesis, and Antiproliferative Activity of Selective Histone Deacetylases 6 Inhibitors Containing a Tetrahydropyridopyrimidine Scaffold” (Molecules, 2023) can be followed below.

pIC50: −log10 of the molar value.

In test [1] the test system is SR. In words: NCI-60 antiproliferative screening, SR. The class given is cell-based. The following applies: Homo sapiens, SR (Leukemia), read-out: Inhibition% values at 10 μM concentration. An excerpt:
(§1) Then, 8f was submitted to NCI for antiproliferative evaluation against 59 different tumor cell lines. The cancer types of the NCI-60 program include leukemia, non-small cell lung cancer (NSCLC), colon cancer, CNS cancer, melanoma, ovary cancer, renal cancer, prostate cancer, and breast cancer.

Test [2] deals with T1, HDAC1 (Homo sapiens, UniProt Q13547).
T1 construct: purchased Reaction Biology Corporation
In words: In vitro HDAC enzyme assay (Reaction Biology Corporation), HDAC1. Format: biochemical. The following applies: Table 1; duplicate, SD < 15%.

The subject of test [3] is SW-620. Briefly: NCI-60 antiproliferative screening, SW-620. The following applies: Homo sapiens, SW-620 (Colon Cancer), read-out: Inhibition% values at 10 μM concentration. The class given is cell-based.
Source text: as §1

Test [4] relates to SF-295. Briefly: NCI-60 antiproliferative screening, SF-295. The following applies: Homo sapiens, SF-295 (CNS Cancer), read-out: Inhibition% values at 10 μM concentration. The class given is cell-based.
Source text: as §1

Test [5] deals with EKVX. Briefly: NCI-60 antiproliferative screening, EKVX. The following applies: Homo sapiens, EKVX (Non-Small Cell Lung Cancer), read-out: Inhibition% values at 10 μM concentration. Format: cell-based.
Source text: as §1

Test [6] relates to MDA-MB-435. In words: NCI-60 antiproliferative screening, MDA-MB-435. Format: cell-based. The following applies: Homo sapiens, MDA-MB-435 (Melanoma), read-out: Inhibition% values at 10 μM concentration.
Source text: as §1

The test system of test [7] is NCI-H522. In words: NCI-60 antiproliferative screening, NCI-H522. Format: cell-based. The following applies: Homo sapiens, NCI-H522 (Non-Small Cell Lung Cancer), read-out: Inhibition% values at 10 μM concentration.
Source text: as §1

The test system of test [8] is SF-539. Briefly: NCI-60 antiproliferative screening, SF-539. The following applies: Homo sapiens, SF-539 (CNS Cancer), read-out: Inhibition% values at 10 μM concentration. The class given is cell-based.
Source text: as §1

In test [9] the target is T2, HDAC6 (Homo sapiens, UniProt Q9UBN7).
T2 construct: purchased Reaction Biology Corporation
T2 sequence (Q9UBN7 1-1215): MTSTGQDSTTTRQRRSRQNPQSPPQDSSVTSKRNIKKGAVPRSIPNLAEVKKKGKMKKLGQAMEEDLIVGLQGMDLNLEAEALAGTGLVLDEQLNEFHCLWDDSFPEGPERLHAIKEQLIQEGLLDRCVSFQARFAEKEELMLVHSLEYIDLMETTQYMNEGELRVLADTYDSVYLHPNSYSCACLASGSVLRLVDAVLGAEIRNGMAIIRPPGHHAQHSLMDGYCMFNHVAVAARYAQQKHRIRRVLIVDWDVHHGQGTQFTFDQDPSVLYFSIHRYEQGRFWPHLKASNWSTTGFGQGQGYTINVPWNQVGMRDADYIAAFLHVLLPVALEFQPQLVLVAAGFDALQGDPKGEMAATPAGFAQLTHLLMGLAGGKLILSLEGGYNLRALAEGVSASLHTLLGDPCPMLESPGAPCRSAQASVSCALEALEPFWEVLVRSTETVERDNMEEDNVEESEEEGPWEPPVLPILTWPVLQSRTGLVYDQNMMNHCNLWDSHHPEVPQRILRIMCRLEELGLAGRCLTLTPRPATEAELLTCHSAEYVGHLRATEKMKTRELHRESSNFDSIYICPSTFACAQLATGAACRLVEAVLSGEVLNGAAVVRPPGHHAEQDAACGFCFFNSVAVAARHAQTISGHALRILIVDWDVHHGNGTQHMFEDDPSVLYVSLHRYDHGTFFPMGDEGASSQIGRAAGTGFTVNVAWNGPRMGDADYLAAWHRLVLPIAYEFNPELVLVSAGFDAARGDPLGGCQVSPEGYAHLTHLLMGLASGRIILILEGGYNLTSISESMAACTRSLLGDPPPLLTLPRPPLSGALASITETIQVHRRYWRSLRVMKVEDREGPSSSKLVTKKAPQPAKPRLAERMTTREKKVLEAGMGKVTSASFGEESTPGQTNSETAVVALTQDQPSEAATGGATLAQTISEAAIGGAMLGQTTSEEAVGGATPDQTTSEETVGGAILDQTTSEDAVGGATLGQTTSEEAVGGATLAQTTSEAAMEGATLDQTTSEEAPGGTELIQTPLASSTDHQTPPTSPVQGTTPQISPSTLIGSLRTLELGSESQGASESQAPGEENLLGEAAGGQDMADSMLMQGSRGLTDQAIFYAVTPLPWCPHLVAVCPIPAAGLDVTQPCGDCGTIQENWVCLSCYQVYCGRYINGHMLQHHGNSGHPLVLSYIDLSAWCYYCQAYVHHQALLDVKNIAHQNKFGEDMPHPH
Briefly: In vitro HDAC enzyme assay (Reaction Biology Corporation), HDAC6. The class given is biochemical.

Test [10] concerns A549/ATCC. Briefly: NCI-60 antiproliferative screening, A549/ATCC. Format: cell-based. The settings on record: Homo sapiens, A549/ATCC (Non-Small Cell Lung Cancer), read-out: Inhibition% values at 10 μM concentration.
Source text: as §1

In test [11] the test system is ACHN. In words: NCI-60 antiproliferative screening, ACHN. The class given is cell-based. The settings on record: Homo sapiens, ACHN (Renal Cancer), read-out: Inhibition% values at 10 μM concentration.
Source text: as §1

The test system of test [12] is A498. In words: NCI-60 antiproliferative screening, A498. The following applies: Homo sapiens, A498 (Renal Cancer), read-out: Inhibition% values at 10 μM concentration. The class given is cell-based.
Source text: as §1

The target in test [13] is T3, HDAC8 (Homo sapiens, UniProt Q9BY41).
T3 construct: purchased Reaction Biology Corporation
In words: In vitro HDAC enzyme assay (Reaction Biology Corporation), HDAC8. The settings on record: Table 2 isozyme screen; duplicate, SD < 15%. Format: biochemical.

For test [14], the system named is CAKI-1. In words: NCI-60 antiproliferative screening, CAKI-1. Format: cell-based. The following applies: Homo sapiens, CAKI-1 (Renal Cancer), read-out: Inhibition% values at 10 μM concentration.
Source text: as §1

Test [15] deals with SK-MEL-5. Briefly: NCI-60 antiproliferative screening, SK-MEL-5. The class given is cell-based. The settings on record: Homo sapiens, SK-MEL-5 (Melanoma), read-out: Inhibition% values at 10 μM concentration.
Source text: as §1

Test [16] deals with U251. Briefly: NCI-60 antiproliferative screening, U251. Format: cell-based. The following applies: Homo sapiens, U-251, U251 (CNS Cancer), read-out: Inhibition% values at 10 μM concentration.
Source text: as §1

Test [17] has as its system SK-OV-3. In words: NCI-60 antiproliferative screening, SK-OV-3. The class given is cell-based. The following applies: Homo sapiens, SK-OV-3 (Ovarian Cancer), read-out: Inhibition% values at 10 μM concentration.
Source text: as §1

The subject of test [18] is NCI-H226. Briefly: NCI-60 antiproliferative screening, NCI-H226. The class given is cell-based. The following applies: Homo sapiens, NCI-H226 (Non-Small Cell Lung Cancer), read-out: Inhibition% values at 10 μM concentration.
Source text: as §1

Test [19] deals with T4, HDAC3 (Homo sapiens, UniProt O15379).
T4 construct: purchased Reaction Biology Corporation
Briefly: In vitro HDAC enzyme assay (Reaction Biology Corporation), HDAC3. The class given is biochemical. The following applies: Table 2 isozyme screen; duplicate, SD < 15%.

T3 sequence (Q9BY41 whole entry): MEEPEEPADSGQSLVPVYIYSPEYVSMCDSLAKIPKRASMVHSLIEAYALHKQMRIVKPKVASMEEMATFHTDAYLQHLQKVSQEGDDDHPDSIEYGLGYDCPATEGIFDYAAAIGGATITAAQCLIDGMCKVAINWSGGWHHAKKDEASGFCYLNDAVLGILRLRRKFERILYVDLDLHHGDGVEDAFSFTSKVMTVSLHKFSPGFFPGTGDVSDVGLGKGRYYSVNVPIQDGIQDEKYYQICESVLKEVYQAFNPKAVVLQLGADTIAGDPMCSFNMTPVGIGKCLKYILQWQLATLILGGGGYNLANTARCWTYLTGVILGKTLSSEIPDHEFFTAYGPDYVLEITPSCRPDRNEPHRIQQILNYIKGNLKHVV
T4 sequence (O15379 whole entry): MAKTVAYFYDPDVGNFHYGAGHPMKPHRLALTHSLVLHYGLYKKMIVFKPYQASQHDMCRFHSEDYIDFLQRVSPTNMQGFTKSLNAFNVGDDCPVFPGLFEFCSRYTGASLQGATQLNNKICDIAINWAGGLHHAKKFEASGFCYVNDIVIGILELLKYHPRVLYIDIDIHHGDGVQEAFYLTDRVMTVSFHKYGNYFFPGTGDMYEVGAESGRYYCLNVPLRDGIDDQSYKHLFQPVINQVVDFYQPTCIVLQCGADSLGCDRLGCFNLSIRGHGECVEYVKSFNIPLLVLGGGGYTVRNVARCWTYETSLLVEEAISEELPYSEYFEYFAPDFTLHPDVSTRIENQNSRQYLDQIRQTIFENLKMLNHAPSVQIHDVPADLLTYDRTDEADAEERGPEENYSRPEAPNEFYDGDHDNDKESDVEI
T4 sequence (Q9Y618 395-489 partner limits assumed): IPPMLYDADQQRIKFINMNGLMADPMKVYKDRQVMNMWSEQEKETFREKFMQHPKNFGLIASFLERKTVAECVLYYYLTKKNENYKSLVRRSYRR
T1 sequence (Q13547 whole entry): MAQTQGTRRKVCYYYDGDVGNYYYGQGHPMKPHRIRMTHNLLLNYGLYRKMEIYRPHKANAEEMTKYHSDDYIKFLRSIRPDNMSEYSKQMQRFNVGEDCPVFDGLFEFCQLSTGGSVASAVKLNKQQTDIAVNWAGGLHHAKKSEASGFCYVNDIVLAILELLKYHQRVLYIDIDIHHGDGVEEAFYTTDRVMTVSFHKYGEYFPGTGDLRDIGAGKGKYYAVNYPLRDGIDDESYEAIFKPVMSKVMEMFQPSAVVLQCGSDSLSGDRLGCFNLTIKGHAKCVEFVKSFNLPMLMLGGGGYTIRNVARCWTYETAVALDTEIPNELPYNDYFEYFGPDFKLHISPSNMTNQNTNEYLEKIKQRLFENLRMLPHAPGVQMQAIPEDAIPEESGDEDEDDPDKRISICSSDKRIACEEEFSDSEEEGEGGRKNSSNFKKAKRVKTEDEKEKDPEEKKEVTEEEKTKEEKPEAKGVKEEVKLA

With `COc1cccc(-c2nc3c(c(-c4cccc(OC)c4)n2)CCN(C(=O)CCCCCCC(=O)NO)C3)c1` [Compound 8f, 8-(2,4-Bis(3-methoxyphenyl)-5,8-dihydropyrido [3,4-d]pyrimidin-7(6H)-yl)-N-hydroxy-8-oxooctanamide], the inhibition at 10 µM in [1] worked out at 84.3%; in test [3] it was 100%; in test [4], 100%; in test [5], 84.4%; in test [6], 95.8%; in test [7], 69.1%. The inhibition at 10 µM amounted to 99% in test [8]; 87.7% in test [10]; 100% in test [11]; 100% in [12]; 100% in test [14]; 100% in test [15]. Further, the inhibition at 10 µM in test [16] was determined as 100%; in test [17] it was 100%; in test [18], 93.3%. The pIC50 in test [2] was 6.51; in test [9] (Table 1, duplicate, SD < 15%), 8.19; in test [13], 6.29; in [19] it was 6.39. Further, the “selectivity over other subtypes” value in [9] (HDAC6 over other HDAC subtypes) is more than 48 fold. Also, in test [9] (Table 1, HDAC6 against HDAC1), the “Selectivity Index” value was 48. The “HDAC8 IC50” value in test [13] is recorded as “poor activity”.
